This note sets out measurements from patent publication US10206907B2, “Compounds useful for the treatment of degenerative and inflammatory diseases” (GALAPAGOS NV, priority 2008, dated 2019).

A word on the IC50: it is the point on the concentration scale where inhibition reaches its midpoint. The EC50 is the concentration giving half of the maximal effect. Broadly, the efflux ratio is a quotient of directional permeabilities that is used to spot active efflux.

Data set [1] has as its target Recombinant human JAK1 catalytic domain (Homo sapiens (Human), UniProt P23458). Nature of the data set: JAK1 inhibition assay. Type of data set: biochemical. The conditions noted are these: semi-quantitative score. The essentials: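 Radiometric assay read by scintillation counting after phosphoric-acid washes. Percent inhibition calculated from cpm relative to vehicle and 10 μM staurosporine control. IC50 derived from compound dose-dilution series.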

For data set [2], the target named is Recombinant human JAK2 catalytic domain (Homo sapiens (Human), UniProt O60674). The data set can be described thus: JAK2 inhibition assay. Type of data set: biochemical. The conditions noted are these: semi-quantitative score. The method in brief: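 Radiometric kinase reactions ran for 90 min at 30 °C and were stopped with phosphoric acid, then washed and counted by scintillation. Percent inhibition was set relative to vehicle and to 10 μM staurosporine background. IC50 was derived from dose-dilution series.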

In data set [3] the target is Recombinant human JAK3 catalytic domain (Homo sapiens (Human), UniProt P52333). Nature of the data set: JAK3 inhibition assay. It counts as biochemical. The following applies: semi-quantitative score.
The target in data set [4] is Recombinant human TYK2 catalytic domain (Homo sapiens (Human), UniProt P29597). Nature of the data set: TYK2 inhibition assay. Type of data set: biochemical. The following applies: semi-quantitative score. How it is done:
After 90 min at 30° C., reactions were stopped by adding of 25 μL/well of 150 mM phosphoric acid. […] Plates were washed 6 times with 300 μL per well of a 75 mM phosphoric acid solution and the bottom of the plates was sealed. 40 μL/well of Microscint-20 was added, the top of the plates was sealed and readout was performed using the Topcount (Perkin Elmer). Kinase activity was calculated by subtracting counts per minute (cpm) obtained in the presence of a positive control inhibitor (10 μM staurosporine) from cpm obtained in the presence of vehicle. The ability of a test compound to inhibit this activity was determined as: Percentage inhibition=((cpm determined for sample with test compound present−cpm determined for sample with positive control inhibitor) divided by (cpm determined in the presence of vehicle−cpm determined for sample with positive control inhibitor))*100%.
Dose dilution series were prepared for the compounds enabling the testing of dose-response effects in the TYK2 assay and the calculation of the IC50 for each compound.

For data set [5], the system named is JAK-STAT signalling in HeLa cells. Nature of the data set: JAK-STAT signalling assay (OSM-triggered pSTAT1(2)-luciferase reporter in HeLa cells). The conditions noted are these: Homo sapiens; HeLa cells, OSM-triggered pSTAT1(2)-luciferase reporter; read-out: STAT signalling EC50. It counts as cell-based. The essentials: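 HeLa cells transiently transfected with pSTAT1(2)-luciferase reporter plus LacZ internal control, incubated overnight at 37 °C, 10% CO2, then OSM-stimulated with compound. Luciferase read by Steadylite luminescence and normalised to β-galactosidase (ONPG); percent inhibition from controls, EC50 from dose-response.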
For orientation: In a reporter assay the amount or activity of a reporter protein is the signal.

The subject of another data set is MMP13 in SW1353 cells. Nature of the data set: OSM/IL-1β signaling assay (MMP13 levels in SW1353 cells).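 Also: secreted MMP13 captured by antibody, activated with APMA and its activity read by fluorescence, inhibition scaled between vehicle-treated triggered wells (0%) and untriggered wells (100%).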 Type of data set: cell-based. The conditions noted are these: Homo sapiens; SW1353 cells, OSM and IL-1β triggered, MMP13 levels 48 hours after triggering; read-out: MMP13 EC50.
Data set [6] is described as follows: Microsomal stability, human liver microsomes. Type of data set: in vitro ADME. The following applies: percentage of compound remaining after 60 minutes, 3 μM compound. The method in brief: (§1)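 Compound was incubated with liver microsomes plus an NADP+/glucose-6-phosphate/G6PDH/MgCl2 regenerating system at 37°C for 1 h. Reactions were stopped 1:1 with MeOH or ACN and analysed by LCMS.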
(Microsomes from liver hold many membrane-bound enzymes, among them those of drug oxidation.)

The nature of data set [7]: Microsomal stability, rat liver microsomes. Type of data set: in vitro ADME. The conditions noted are these: percentage of compound remaining after 60 minutes, 3 μM compound. The essentials:
as §1

Data set [8] can be described thus: Caco2 permeability (bi-directional). It counts as in vitro ADME, human. The following applies: human, pH 7.4. The essentials:
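Bidirectional transport across Caco-2 monolayers was run for 1 h at 37 °C with shaking, with 50 μM Lucifer Yellow in the donor to check monolayer integrity (acceptance ≤100 nm/s). Apical and basal compound levels were measured by LC-MS/MS, and efflux ratio was taken as PappB>A/PappA>B.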

Chain of Recombinant human TYK2 catalytic domain (P29597 871-1187): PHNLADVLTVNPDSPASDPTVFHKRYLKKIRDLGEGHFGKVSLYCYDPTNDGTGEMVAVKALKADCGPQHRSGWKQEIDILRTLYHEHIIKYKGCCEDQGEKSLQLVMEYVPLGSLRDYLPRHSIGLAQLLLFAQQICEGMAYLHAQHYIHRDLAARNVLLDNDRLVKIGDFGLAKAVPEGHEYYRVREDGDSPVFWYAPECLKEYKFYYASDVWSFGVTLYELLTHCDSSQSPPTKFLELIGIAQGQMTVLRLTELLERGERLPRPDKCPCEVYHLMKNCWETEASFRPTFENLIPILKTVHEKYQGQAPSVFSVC
Chain of Recombinant human JAK3 catalytic domain (P52333 781-1124): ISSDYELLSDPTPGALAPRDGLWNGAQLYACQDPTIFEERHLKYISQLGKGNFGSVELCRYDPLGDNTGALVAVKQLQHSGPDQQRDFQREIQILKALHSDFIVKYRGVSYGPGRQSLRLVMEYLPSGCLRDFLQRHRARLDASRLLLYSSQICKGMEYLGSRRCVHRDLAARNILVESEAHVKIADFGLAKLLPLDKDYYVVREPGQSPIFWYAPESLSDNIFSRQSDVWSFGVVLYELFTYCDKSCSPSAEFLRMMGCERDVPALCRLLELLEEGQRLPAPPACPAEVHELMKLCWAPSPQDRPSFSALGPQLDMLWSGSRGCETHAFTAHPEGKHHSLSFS
Chain of Recombinant human JAK2 catalytic domain (O60674 808-1132): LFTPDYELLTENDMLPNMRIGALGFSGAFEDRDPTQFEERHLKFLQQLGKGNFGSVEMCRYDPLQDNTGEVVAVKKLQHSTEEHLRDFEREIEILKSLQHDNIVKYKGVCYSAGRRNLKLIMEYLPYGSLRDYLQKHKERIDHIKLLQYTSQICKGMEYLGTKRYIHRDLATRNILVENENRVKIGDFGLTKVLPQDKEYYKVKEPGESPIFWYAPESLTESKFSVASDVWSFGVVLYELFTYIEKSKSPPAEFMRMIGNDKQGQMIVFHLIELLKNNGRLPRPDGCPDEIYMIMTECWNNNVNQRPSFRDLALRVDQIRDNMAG
Chain of Recombinant human JAK1 catalytic domain (P23458 850-1154): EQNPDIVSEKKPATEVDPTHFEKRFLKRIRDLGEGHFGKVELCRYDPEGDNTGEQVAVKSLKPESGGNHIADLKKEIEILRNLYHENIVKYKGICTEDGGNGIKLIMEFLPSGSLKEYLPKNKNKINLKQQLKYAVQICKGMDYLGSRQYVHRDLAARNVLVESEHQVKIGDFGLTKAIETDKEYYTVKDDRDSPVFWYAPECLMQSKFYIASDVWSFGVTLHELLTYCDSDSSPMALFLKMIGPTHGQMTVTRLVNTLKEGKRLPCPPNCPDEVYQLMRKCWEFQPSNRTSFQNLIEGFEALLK

Regarding `O=C(Nc1nc2cccc(-c3ccc4c(ccn4Cc4ccccc4)c3)n2n1)C1CC1` [Compound 121, Cyclopropanecarboxylic Acid [5-(1-benzyl-1H-indol-5-yl)-[1,2,4]triazolo[1,5-a]pyridin-2-yl]-amide], the IC50 is less than 100 nM in [1], less than 100 nM in data set [2], 501 to 1000 nM in data set [3] and greater than 1000 nM in [4]. For the same molecule, the EC50 was 501 to 1000 nM in data set [5] and greater than 1000 nM with MMP13 in SW1353 cells. Moreover, the “Microsomal Stability Human (%)” value in data set [6] was “* (* 0-25)”. Besides, in data set [7], the “Microsomal Stability Rat (%)” value is listed as “* (* 0-25)”.
Consider `CN1CCN(c2ccc(-c3cccc4nc(NC(=O)C5CC5)nn34)cc2)CC1` [Compound 1, N-(5-(4-(4-methylpiperazin-1-yl)phenyl)-[1,2,4]triazolo[1,5-a]pyridin-2-yl)cyclopropanecarboxamide], for which the IC50 is 101 to 500 nM in [1], 501 to 1000 nM in data set [2], greater than 1000 nM in data set [3] and greater than 1000 nM in data set [4].
In the case of `O=C(Nc1ccccc1)c1ccc(-c2cccc3nc(NC(=O)C4CC4)nn23)cc1` [Compound 43, 4-(2-(cyclopropanecarboxamido)-[1,2,4]triazolo[1,5-a]pyridin-5-yl)-N-phenylbenzamide], the values for the half-maximal inhibitory concentration (IC50) in [1], in [3] and in [4] were 101 to 500 nM, greater than 1000 nM and greater than 1000 nM, respectively. Also, the “Microsomal Stability Human (%)” value in [6] is “**** (**** 76-100)”. For the same molecule, the “Microsomal Stability Rat (%)” value in [7] is “**** (**** 76-100)”.
Turning to `O=C(Nc1nc2cccc(-c3ccc(OCC4CCCCC4)cc3)n2n1)C1CC1` [Compound 41, N-(5-(4-(cyclohexylmethoxy)phenyl)-[1,2,4]triazolo[1,5-a]pyridin-2-yl)cyclopropanecarboxamide], the IC50 was less than 100 nM in data set [1], 101 to 500 nM in data set [2] and greater than 1000 nM in data set [4]. Moreover, the 50% effective concentration (EC50) (in data set [5]; in the data set with MMP13 in SW1353 cells) was 501 to 1000 nM in each case. The “Microsomal Stability Human (%)” value in data set [6] is recorded as “** (** 26-50)”. Besides, the “Microsomal Stability Rat (%)” value in [7] is “** (** 26-50)”.
As to `O=C(Nc1nc2cccc(-c3ccc(OCC4CCC4)cc3)n2n1)C1CC1` [Compound 39, N-(5-(4-(cyclobutylmethoxy)phenyl)-[1,2,4]triazolo[1,5-a]pyridin-2-yl)cyclopropanecarboxamide], the IC50 was less than 100 nM in data set [1], less than 100 nM in [2], greater than 1000 nM in data set [3] and greater than 1000 nM in data set [4]. Besides, the EC50 (in [5]; with MMP13 in SW1353 cells) was greater than 1000 nM throughout. Besides, the “Microsomal Stability Human (%)” value in data set [6] is given as “** (** 26-50)”. The “Microsomal Stability Rat (%)” value in data set [7] is “** (** 26-50)”.
For `O=C(Nc1nc2cccc(-c3ccc(-c4cccnc4)cc3)n2n1)C1CC1` [Compound 66, N-(5-(4-(pyridin-3-yl)phenyl)-[1,2,4]triazolo[1,5-a]pyridin-2-yl)cyclopropanecarboxamide], the IC50 in data set [1] is less than 100 nM; in data set [2], 101 to 500 nM; in data set [4], 501 to 1000 nM. In addition, the EC50 (in [5]; with MMP13 in SW1353 cells) was greater than 1000 nM each time. Also, the “Microsomal Stability Human (%)” value in [6] is “**** (**** 76-100)”. Further, the “Microsomal Stability Rat (%)” value in data set [7] was “* (* 0-25)”.
Take `O=C(Nc1nc2cccc(-c3ccc(OCc4ncon4)cc3)n2n1)C1CC1` [Compound 99, N-(5-(4-((1,2,4-oxadiazol-3-yl)methoxy)phenyl)-[1,2,4]triazolo[1,5-a]pyridin-2-yl)cyclopropanecarboxamide]: the IC50 was less than 100 nM in data set [1], less than 100 nM in [2] and 101 to 500 nM in [3]. The EC50 in data set [5] was 101 to 500 nM; in the data set on MMP13 in SW1353 cells it was 1 to 500 nM. The “Microsomal Stability Human (%)” value in data set [6] is “** (** 26-50)”. Further, the “Microsomal Stability Rat (%)” value in data set [7] is recorded as “* (* 0-25)”. Further, in [8] (Caco-2, apical to basolateral, read-out: Papp (A2B)), the Papp A→B at 1 h, 10 µM was 38.9 ×10⁻⁶ cm/s. The efflux ratio at 1 h, 10 µM in data set [8] (Caco-2, ratio of PappB>A/PappA>B) was 0.81.
